The values that follow come from US20220177484A1, “MACROCYCLES WITH ANTIOXIDANT AND NEUROPROTECTIVE ACTIVITIES” (INSTITUTO BIOMAR, S.A, priority 2019, published 2022).

In data set [1] the test system is cortical primary neurons (from C57BL6/J mice). As to the kind of experiment: H2O2 production in neurons after excitotoxic NMDA stimulus (Amplex Red). In kind it is cell-based. To be noted: 100 μM NMDA 10 min, then compound 0.1, 1, 5 μM (FIG. 5). As to the method: For NMDA receptors activation, neurons at 8 days in vitro were incubated with 100 μM NMDA for 10 minutes. Neurons were then washed and further incubated for 4 hours in culture medium with DMSO only (DMSO empty bar), DMSO and NMDA (DMSO filled bar) and with increasing quantities of GKK1032C, GKK1032, Pyrrocidine A, Pyrrocidine B, CL0661, CL0667 and CL0670. Concentrations of 0.1 μM, 1 μM, 5 μM. *: p-value <0.05 vs. DMSO+NMDA (student's test).
(§1) Experiments were performed in […] cortical primary neurons, obtained as was previously described (Herrero-Mendez A. et al., Nat. Cell. Biol. 11:747-752, 2009). After 7 or 8 days in B27-MAO culture, neurons (from C57BL6/J mice) were incubated in the presence of N-methyl-D-aspartate (NMDA, a H2O2 production promoter; 100 μM) for 10 minutes, followed by a PBS washing step and submitted to a 24-hour B27 incubation step in the absence (DMSO) or presence of increasing amounts of GKK1032C, GKK1032, Pyrrocidine B, Pyrrocidine A, CL0661, CL0665, CL0667 and CL0670 (0.1 μM, 1 μM and 5 μM). B27-MAO stands for Neurobasal medium, supplemented with B27 supplement in the absence of antioxidants (minus antioxidants, MAO).
The release of H2O2 was measured using the fluorescent method Amplex© Red hydrogen peroxide/peroxidase assay kit (Invitrogen, catalog number A22188) using a multiwell fluorescence reader (Varioskan, Thermo Scientific).
(§2) The data are presented as the mean values±standard deviation of the mean from n=3.

Data set [2] has the same test system. As to the kind of experiment: Caspase-3 activity (neuronal apoptosis) after excitotoxic NMDA stimulus. In kind it is cell-based. To be noted: 100 μM NMDA 10 min, then 24 h with compound 0.1, 1, 5 μM (FIG. 6). As to the method: For NMDA receptors activation, neurons at 8 days in vitro were incubated with 100 μM NMDA for 10 minutes. Neurons were then washed and further incubated for 24 hours in culture medium with DMSO only (DMSO empty bar), DMSO and NMDA (DMSO filled bar) and with increasing quantities of GKK1032C, GKK1032, Pyrrocidine B, CL0661, CL0665, CL0667 and CL0670. Concentrations of 0.1 μM, 1 μM, 5 μM. *: pvalue <0.05 vs. DMSO+NMDA (student's test).
as §1
Neuronal apoptosis was determined by measuring caspase-3 activity (Veas-Perez de Tudela et al. Sci Rep 5:18180; doi:10.1038/srep18180 (2015).
as §2

Data set [3] has as its system C57BL6/J male mice. As to the kind of experiment: Rotarod test after Middle Cerebral Artery occlusion (stroke model). The class given is in vivo. To be noted: GKK1032C and CL0670 10 mg/kg intravenously (jugular vein) after 30 min occlusion; rotarod 24 hours after reanimation; untreated stroke impairment ˜75%. The text has this: Middle Cerebral Artery occlusion involves temporarily or permanently restricting MCA blood flow to the cortex and striatum. The cerebral ischemic model of stroke is commonly used to assess ischemic injury in the brain. Occlusion of the middle cerebral artery (MCA) leads to a reduction of cerebral blood flow in both the striatum and the cortex. It is a highly reproducible model that results in brain damages similar to those occurring in human stroke.
Compounds GKK1032C and CL0670 were administered intravenously at a dose of 10 mg/kg. 11-week old C57BL6/J male mice were divided into 3 groups of 7 mice each: mice submitted to Middle Cerebral Artery occlusion (ischemia), mice submitted to Middle Cerebral Artery occlusion and administration of GKK1032C and CL0670.
All mice were firstly trained in the rotarod for 3 consecutive days. After this period, the mice were put to sleep with sevoflurane and submitted to surgery. Occlusion was performed by maintain the surgical filament occluding the middle cerebral artery for 30 minutes. Once removed, GKK1032C and CL0670 were injected at the jugular vein. 24 hours after reanimation, the animals were submitted to the rotarod test.

The nature of data set [4]: Pharmacokinetics in plasma and brain after intraperitoneal administration. The class given is in vivo, female C57BL/6 mice. Conditions: 150 mg/Kg intraperitoneal. The procedure: FIG. 10 represents the concentration of Compound I in plasma and brain of female C57BL/6 mice collected at t=0 min, 5 min, 15 min, 30 min, 1 hour, 4 hours, 10 hours, 24 hours and 48 hours.
The Maximum Tolerated Dose (MTD) and Pharmacokinetics (PK) of compound I were determined after intraperitoneal administration to female C57BL/6 (˜25 g) 9 weeks old mice. The injection comprised a 150 mg/Kg dose of compound I in Creomophor-EtOH-H2O (10:5:85). The concentrations of GKK1032C in plasma and brain were determined at different times per duplicate (pre-dose, 5 min, 15 min, 30 min, 1 h, 4 h, 10 h, 24 h and 48 h) using a previously validated analytical method. […] The highest concentration in the brain is 850 ng/mL at 4 hours after injection and progressively declined until reaching the control levels at 24 hours post-administration.

Data set [5] deals with C57BL6/J male mice. As to the kind of experiment: Rotarod test under normal conditions. In kind it is in vivo. To be noted: once-daily 150 mg/kg intraperitoneal for 3 days, normal mice (FIG. 11). As to the method:
FIG. 11 represents the results from the rotarod test to 8 weeks-old C57BL6/J male mice separated in two groups: Control (mice injected with vehicle) and Compound I (mice injected with a once-daily dose of 150 mg/kg of Compound I).
(§3) Experiments were conducted to evaluate if the intraperitoneal administration of Compound I to mice would have any effect in the animal's motor coordination, fear/anxiety and short-term memory behaviour. The motivation for this experiment is to determine if, under normal conditions, the injection of compound I would affect the behaviour of 8 weeks-old C57BL6/J male mice, in vivo. Mice were separated in group I (vehicle injection only) and group II (compound I injection). The mice were injected with a once-daily dose of 150 mg/kg for 3 days. The tests consisted in the rotarod performance test (at day 1, 2, 3 and 4), the open field test (at day 2 and 3) and the novel object recognition test (at day 4 only).
Background: Falling from the rotarod earlier than controls is read as motor impairment.

In data set [6] the test system is C57BL6/J male mice. As to the kind of experiment: Novel Object Recognition test under normal conditions. The class given is in vivo. To be noted: once-daily 150 mg/kg intraperitoneal for 3 days, test at day 4. The procedure:
as §3

With `C=CC1(C)C=C(C)C2C3C(Oc4ccc(cc4)CC4C(=O)NC(O)C4C(=O)C31)C1C(C)CC(C)CC21C` (stereo not drawn) [CL0670], the “H2O2 production in neuron cells after NMDA” value in data set [1] is “successful in preventing H2O2 from being produced”. Further, the “neuronal apoptosis (caspase-3 activity) after NMDA” value in data set [2] is recorded as “effective in protecting neuron cells against apoptosis”. For the same molecule, the “recovery of motor coordination (rotarod) of mice with stroke” value with C57BL6/J male mice [3] was roughly 17%.
For the molecule `C=CC1(C)C=C(C)C2C3C(Oc4ccc(cc4)CC4(O)NC(=O)C5(OC45)C(=O)C31)C1C(C)CC(C)CC21C` (stereo not drawn) [Compound I], the “H2O2 production in neuron cells after NMDA” value in data set [1] is given as “successful in preventing H2O2 from being produced”. Further, in data set [2], the “neuronal apoptosis (caspase-3 activity) after NMDA” value is on record as “effective in protecting neuron cells against apoptosis”. In addition, in data set [4] (Creomophor-EtOH-H2O (10:5:85), mice (FIG. 10)), the “highest concentration in the plasma” value is 30000 ng/mL. Moreover, in data set [4] (mice), the “crossing of the blood-brain barrier” value is on record as “successfully crosses the blood-brain barrier”, the “duration of high levels in the brain” value was “about 18 hours”, the “highest concentration in the brain” value stood at 850 ng/mL and the “time at which brain concentration reaches the control levels post-administration” value was determined as 24 h. In data set [4] (mice), the “time of highest concentration in the brain after injection” value worked out at 4 h and the “time of highest concentration in the plasma after injection” value turned out to be 4 h. Besides, the “motor coordination (rotarod)” value in the data set on C57BL6/J male mice [5] was “no effect”. In addition, the “short-term memory (Novel Object Recognition)” value in the data set with C57BL6/J male mice [6] was “did not alter”. The “recovery of motor coordination (rotarod) of mice with stroke” value with C57BL6/J male mice [3] is given as roughly 17%.
